Assay [1] deals with MSSA. Nature of the assay: Plug-based drug screening in human blood plasma/LB. The settings on record: 1:1 human blood plasma/LB; breakpoint concentration; 7.5 h at 37° C.
The subject of assay [2] is Methicillin Resistant S. aureus (MRSA). The settings on record: CFX 24 mg/L; stated as known; cited from earlier work.
The test system of assay [3] is Methicillin Sensitive S. aureus (MSSA). The settings on record: CFX 24 mg/L; stated as known; cited from earlier work.
Assay [4] concerns Methicillin Resistant S. aureus (MRSA). The assay is described as follows: MIC determination in plugs. The settings on record: Staphylococcus aureus, 6.75 h, read-out: MIC of CFX for MRSA.
The test system of assay [5] is Methicillin Sensitive S. aureus (MSSA). Nature of the assay: MIC determination in plugs. The settings on record: Staphylococcus aureus, 6.5 h, read-out: MIC of CFX for MSSA.
Assay [6] concerns MSSA (Staphylococcus aureus ATCC# 25923). Nature of the assay: Antibiotic testing on Mueller Hinton agar plates. The settings on record: 30° C., even after 40 h.
Experimental: Plates were made from Mueller Hinton Agar (Fluka, Switzerland). After autoclaving, the agar was cooled and antibiotics were added and 20 mL plates were poured. For CFX and OXA testing, 50 μL of MRSA and MSSA bacterial culture at 4×10^3 CFU/mL was spread onto separate TSA plates. The plates were incubated at 30° C. After 16.5 h and 40 h the plates were examined for colonies. […] For AMP, ERT, LVF, and VCM, 5 μL of culture at 2×10^4 CFU/mL were spread onto plates, and the plates were incubated at 37° C. for 12 h. After 12 h, growth of colonies on the plates was considered resistance to the antibiotic and no colonies on the plates were considered sensitivity to the antibiotic.
In assay [7] the test system is Methicillin Resistant S. aureus (MRSA, ATCC# 43300). The assay is described as follows: Plug-based microfluidic antibiotic susceptibility screen (stochastic confinement, alamarBlue viability indicator). Format: cell-based, Staphylococcus aureus. The settings on record: breakpoint concentration, 4 nL plugs, 4×10^5 CFU/mL, 7 h at 37° C. Background: Resazurin is reduced to fluorescent resorufin, in cell work by metabolically active cells.

In assay [8] the test system is S. aureus strain (MRSA). The assay is described as follows: Macro-scale experiments (negative control check). The format is cell-based, Staphylococcus aureus. The settings on record: data not shown.

Regarding `CC1(C)S[C@@H]2[C@H](NC(=O)[C@H](N)c3ccccc3)C(=O)N2[C@H]1C(=O)O` [AMP, ampicillin], the “Increase in fluorescence intensity of plugs containing MSSA and antibiotic” value in assay [1] was “no increase in fluorescence intensity”.

By MIC is commonly meant the lowest concentration that inhibits growth of the organism. In the case of `CO[C@@]1(NC(=O)Cc2cccs2)C(=O)N2C(C(=O)O)=C(COC(N)=O)CS[C@@H]21` [CFX, cefoxitin], the “Inhibition of MRSA at the positive control concentration” value in assay [2] is listed as “inhibited”. Moreover, in assay [3], the “Inhibition of MSSA at the positive control concentration” value is on record as “inhibited”. Besides, the MIC in assay [4] is less than 8000 µg/mL; in assay [5] it was less than 4000 µg/mL. Further, the “Appearance of MSSA colonies on antibiotic plates” value in assay [6] is “did not appear”.

For the compound `Cc1onc(-c2ccccc2)c1C(=O)N[C@@H]1C(=O)N2[C@@H]1SC(C)(C)[C@@H]2C(=O)O` [OXA, oxacillin], the “Appearance of MSSA colonies on antibiotic plates” value in assay [6] is recorded as “did not appear”.

Consider `CN[C@H](CC(C)C)C(=O)N[C@H]1C(=O)N[C@@H](CC(N)=O)C(=O)N[C@H]2C(=O)N[C@H]3C(=O)N[C@H](C(=O)N[C@H](C(=O)O)c4cc(O)cc(O)c4-c4cc3ccc4O)[C@H](O)c3ccc(c(Cl)c3)Oc3cc2cc(c3O[C@@H]2O[C@H](CO)[C@@H](O)[C@H](O)[C@H]2O[C@H]2C[C@](C)(N)[C@H](O)[C@H](C)O2)Oc2ccc(cc2Cl)[C@H]1O` [VCM, vancomycin], for which the “Susceptibility of MRSA to antibiotic (increase in fluorescence intensity of plugs versus 3 times the VCM baseline)” value in assay [7] was “sensitive”; in assay [7] (listed as Vancomycin), “not resistant”. Moreover, in assay [8], the “Inhibition of the S. aureus strain in macro-scale experiments” value is reported as “inhibited”.

These data come from patent US11661577B2, “Co-incubating confined microbial communities” (CALIFORNIA INSTITUTE OF TECHNOLOGY, priority 2007, dated 2023).
